The numbers were not newly measured in patent US20080213192A1, “AEROSOL LOTION FORMULATIONS” (Schering-Plough Healthcare Products, Inc., priority 2006, published 2008), which cites them from elsewhere.

For this series the following is noted: Raval and Parrott, J. Pharm. Sci. 1967.

Consider `COC(=O)c1ccc(O)cc1` [methylparaben], for which the “pH above which methylparaben hydrolyzes” value was greater than 6.
